In patent US20090036516A1, “COMPOUNDS FOR TREATING METABOLIC SYNDROME” (CTG PHARMA S.R.L., priority 2003, published 2009):

Experiments:
[1] = tested on: patients with type II diabetes; details: single parenteral dose of 1,000 mg; cited from earlier work
[2] = tested on: diabetic neuropathy; details: intravenous 600 mg a day for 3 weeks; cited from earlier work
[3] = tested on: patients with type II diabetes; details: oral 600 mg once to 3 times a day; cited from earlier work
[4] = tested on: high-fat diet fed insulin resistant mice; experiment: hyperinsulinemic euglycemic clamp in high-fat diet fed insulin resistant mice; format: in vivo; details: 50 mg/kg/day by gavage for 7 days; steady state phase of hyperinsulinemic euglycemic clamp; n = 8
Procedure: The effects of administration of 50 mg/kg/day of the compound of Example 2, by gavages to high-fat diet fed insulin resistant mice [Cook et al. Diabetes, 53:2067-72, 2004] for 7 days, in terms of glucose infusion rate (mg/kg per min, during the steady state phase of hyperinsulinemic euglycemic clamp studies) were reported in the following table 1: […]

[5] = tested on: male Wistar rats; experiment: oxidative stress-induced (BSO) hypertension in rats; format: in vivo; details: BSO 30 mmol/L/day in drinking water for seven days; compound 50 mg/kg/day for seven days
Excerpt: It is widely known that metabolic syndrome is generally accompanied by oxidative stress. Also in the paper of Ogihara (Ogihara T. et al. “Oxidative stress induces insulin resistance by activating the nuclear factor-kB pathway and disrupting normal subcellular distribution of phosphatidylinositol 3-kinase” in Diabetologia 47, 794-805 (2004) such relationship was found. The effect of oxidative stress-induced hypertension in rats has been evaluated in male Wistar rats (10 animals/group). Hypertension was induced by oral administration of buthionine sulphoximine (BSO) (30 mmol/L/day) to the drinking water for seven days.
Compounds of examples 2, 3 and 5 suspended in the vehicle at the dose of 50 mg/kg/day were administered for seven days and some parameters measured in the experiments are reported in table 2.

SMILES	glucose utilization [1]	symptomatic complaints [2]	insulin sensitivity [3]	glucose infusion rate [4] [mg/kg per min]	% Increase systolic blood pressure [5] [%]	% Plasma glutathione decrease [5] [%]	Endothelium function (% contraction induced by acetylcholine) [5] [%]
O=C(O)CCCC[C@@H]1CCSS1 (racemic) [lipoic acid]	distinct improvement	decreased	able to influence the insulin sensitivity				
CC(=O)Oc1ccccc1C(=O)Oc1ccc(-c2cc(=S)ss2)cc1 [Cpd Ex 5, 2-acetoxy-benzoic acid 4-(thioxo-5H-[1,2]dithiol-3-yl)-phenyl ester]				86.4	10	5	88
CCOC(=O)c1ccccc1OC(=O)CCCCC1CCSS1 (stereo not shown) [Cpd Ex 6, 2-(5-[1,2]Dithiolan-3-yl-pentanoyloxy)-benzoic acid ethyl ester]					50	20	60
O=C(Oc1ccc(-c2cc(=S)ss2)cc1)c1ccccc1O [Cpd Ex 8, 2-hydroxybenzoic acid 4-(thioxo-5H-[1,2]dithiol-3-yl)-phenyl ester]					15	7	80
